From US20160083374A1, “AMORPHOUS FORM OF CANAGLIFLOZIN AND PROCESS FOR PREPARING THEREOF” (CADILA HEALTHCARE LIMITED, priority 2013, published 2016)

What was measured:
[1] = Solid-form stability under normal stability conditions; assay type: physicochemical; settings: amorphous canagliflozin obtained by removal of solvent per the invention
Description: The obtained amorphous canagliflozin is stable under normal stability conditions and substantially free from residual solvent. Therefore, there is no physical change observed from amorphous form to crystalline form during the stability.
In another general aspect, the stable amorphous form of canagliflozin, is stored under nitrogen atmosphere and packed in a double polythene bag tied with a thread, keeping primary packing containing amorphous canagliflozin or salts thereof inside a black color polyethylene bag containing oxygen busters and sealing it, placing above the double polyethylene bag inside a triple laminated bag optionally containing oxygen busters and sealing it, and placing the sealed triple laminated bag inside a closed high density polyethylene (HDPE) container and storing in controlled environment chamber at about 25° C. and/or 40° C.

[2] = cited from earlier work

Cc1ccc([C@@H]2O[C@H](CO)[C@@H](O)[C@H](O)[C@H]2O)cc1Cc1ccc(-c2ccc(F)cc2)s1 [amorphous canagliflozin]
stability of amorphous form (change from amorphous to crystalline form) [1]: stable | physical change between sorption/desorption cycles ([2]; amorphous canagliflozin of US '487 A1, humidity increased from 70% to 90% RH): conversion or partial conversion from the amorphous state to a crystalline state | hygroscopicity by DVS ([2]; amorphous canagliflozin prepared by the process of US '487 A1 (toluene solution into n-heptane)): hygroscopic
